29 compounds from PubChem BioAssay AID2740 (NMMLSC, 2010) can be followed below.

Calls of active or inactive are those of the source.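 The calls were made as follows: active = compounds whose fitted half-maximal concentration for changing the GFP signal is at or below a set limit; inactive = the rest.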

A short description of the test: TOR pathway RPL19A-GFP modulators, concentration series – cell-based, S. cerevisiae, flow cytometry, MLPCN hits, dose response (AID 2740).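 Also: background is signal of the same compound in parental non-GFP s288c yeast.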 The settings on record: S. cerevisiae RPL19A-GFP strain, flow cytometry fluorescence, 3 h; at 33 µM (top of the series). On the technique in general: A flow cytometer gives signals particle by particle.

`O=C(NC(=S)NNC(=O)[C@H]1C[C@@H]1c1ccccc1)c1cccc(F)c1`: the GFP fluorescence, lower = active (kMESF (background-subtracted)) is 45.1 (inactive).

With `O=C(COc1ccccc1)NNC(=S)NC(=O)c1ccccc1`, the GFP fluorescence, lower = active (kMESF (background-subtracted)) was 44.4 (inactive).

Turning to `O=C(Nc1nnc(-c2ccc(F)cc2)o1)c1cc(Cl)sc1Cl`, the GFP fluorescence, lower = active (kMESF (background-subtracted)) is 51.4 (inactive).

In the case of `COc1ccc2c(/C=C/c3cc[n+](C)cc3)c[nH]c2c1`, the GFP fluorescence, lower = active (kMESF (background-subtracted)) was 39 (inactive).

Consider `COc1cc(NC(=O)c2ccccc2[N+](=O)[O-])ccc1NC(=O)c1cc2ccccc2o1`, for which the GFP fluorescence, lower = active (kMESF (background-subtracted)) was 39.2 (inactive).

`O=C(Nc1cccc(-c2csc(Nc3ccccc3)n2)c1)c1ccccc1`: the GFP fluorescence, lower = active (kMESF (background-subtracted)) was 33.7 (inactive).

Consider `COc1ccc(NC(=O)/C(Cl)=C(/Cl)S(=O)Cc2ccccc2)cn1` (centres undefined), for which the GFP fluorescence, lower = active (kMESF (background-subtracted)) was 35.8 (inactive).

As to `Cc1cc(C)c(S(=O)(=O)ON2C(=O)c3ccccc3C2=O)cc1C`, the GFP fluorescence, lower = active (kMESF (background-subtracted)) is 25.8 (inactive).

As to `Cc1cccc(NC(c2ccc(C)s2)c2ccc3ccc(C)nc3c2O)n1` (centres undefined), the GFP fluorescence, lower = active (kMESF (background-subtracted)) is 31.2 (inactive).

As for `C/C(=N\Nc1ncnc2sc(C)c(C)c12)c1ccccn1`, the GFP fluorescence, lower = active (kMESF (background-subtracted)) was -2.55 (inactive).

As to `O=C(CS(=O)c1ccccc1[N+](=O)[O-])Oc1ccc(Br)cc1` (centres undefined), the GFP fluorescence, lower = active (kMESF (background-subtracted)) was 39.1 (inactive).

With `O=C1CCN(S(=O)(=O)c2ccccc2)CCN1CCOCc1ccc(F)cc1`, the GFP fluorescence, lower = active (kMESF (background-subtracted)) is 36.9 (inactive).

With `N#Cc1cc([N+](=O)[O-])c(-n2nnc3ccccc32)c([N+](=O)[O-])c1`, the GFP fluorescence, lower = active (kMESF (background-subtracted)) is 43.3 (inactive).

As for `Cc1ccc(/C=C2\SC(=S)N(CC3CCCO3)C2=O)o1` (centres undefined), the GFP fluorescence, lower = active (kMESF (background-subtracted)) was 42.5 (inactive).

Regarding `Cc1ccc(NC(=O)c2nc(S(=O)(=O)Cc3ccccc3)ncc2Cl)cc1`, the GFP fluorescence, lower = active (kMESF (background-subtracted)) was 43 (inactive).

As to `CSC1=NS(=O)(=O)c2c(C)nn(C)c2S1`, the GFP fluorescence, lower = active (kMESF (background-subtracted)) was 35.2 (inactive).

Take `N#C/C(=C\c1ccccn1)c1nc2ccccc2s1`: the GFP fluorescence, lower = active (kMESF (background-subtracted)) is 54.2 (inactive).

`Oc1ccc(CNc2ccccc2)c2cccnc12`: the GFP fluorescence, lower = active (kMESF (background-subtracted)) was 42.2 (inactive).

Consider `CCN1/C(=C/C=C/c2sc3ccccc3[n+]2CC)Sc2ccccc21`, for which the GFP fluorescence, lower = active (kMESF (background-subtracted)) was 31.9 (inactive).

Consider `O=C(Nc1nc2ccc(F)cc2s1)c1ccccn1`, for which the GFP fluorescence, lower = active (kMESF (background-subtracted)) is 48.2 (inactive).

Regarding `Cc1cc(C(=O)Nc2nc(-c3ccccn3)cs2)ccc1[N+](=O)[O-]`, the GFP fluorescence, lower = active (kMESF (background-subtracted)) is 48.9 (inactive).

In the case of `O=c1c2cc(Cl)ccc2nc(-c2ccc([N+](=O)[O-])cc2)n1O`, the GFP fluorescence, lower = active (kMESF (background-subtracted)) is 14 (inactive).

As for `O=C(OCC(=O)N1CCN(C(=O)c2ccco2)CC1)c1cc(-c2ccc(Cl)c(Cl)c2Cl)nc2ccccc12`, the GFP fluorescence, lower = active (kMESF (background-subtracted)) was 31.8 (inactive).

As for `O=c1oc2ccccc2c(O)c1[C@H]1c2ccc(O)cc2Oc2c1c(=O)oc1ccccc21`, the GFP fluorescence, lower = active (kMESF (background-subtracted)) was 34.8 (inactive).

`Cc1ccc(C(=O)Oc2oc(-c3ccco3)nc2C=Nc2ccc(Cl)cc2)cc1`: the GFP fluorescence, lower = active (kMESF (background-subtracted)) is 40.8 (inactive).

Regarding `O=C1c2ccccc2C(=O)N1OS(=O)(=O)c1ccccc1`, the GFP fluorescence, lower = active (kMESF (background-subtracted)) was 43.2 (inactive).

For the compound `Cc1ccc(C(=O)/C=C/C(=O)c2ccc(C)cc2)cc1`, the GFP fluorescence, lower = active (kMESF (background-subtracted)) is 47.5 (inactive).

For `COc1ccc(N2C(=O)C(Cl)=C(Oc3cccc(OC)c3)C2=O)cc1`, the GFP fluorescence, lower = active (kMESF (background-subtracted)) is 45.6 (inactive).

`CC(Oc1ccc2ccccc2c1)C(=O)NNC(=S)NC(=O)c1ccco1` (centres undefined): the GFP fluorescence, lower = active (kMESF (background-subtracted)) was 34.3 (inactive).
